Laboratory results as given in patent publication US20040161781A1, “Compositions and methods for identifying thymidylate synthase modulators” (priority 2002, published 2004).
“Also recorded” adds a separate entry of the source. *1 amine or outer side, *2 acyl side, *3 side chain or, on linkers, in order; H or OH if unused. Where a SMILES comes first, the peptide text is derived from it. Bridges are numbered along the chain shown (N, C = ends). Roman numbers before positions name the chains, in order. [ ]: non-standard residue; d: D form. Actinocin(9to1) = Cc1c2oc3c(C)ccc(C(=O)[*:1])c3nc-2c(C(=O)[*:2])c(N)c1=O; NMeV = CN[C@H](C(=O)O)C(C)C; Sar = CNCC(=O)O

Experiments:
Type in all cases: cell-based, human
[1] = system: thymidylate synthase (TS); assay: Down-regulation of TS in H630 cells treated with acyl-homoserine lactones (Western blotting); conditions: overnight (approximately 16 hours)
Excerpt: FIG. 6. A representation of the ability of acyl homoserine lactones to down-regulate TS in H630 cells.
The signaling molecules produced by the rTS signaling pathway cause a decrease in the amount of TS found in cells. These signaling molecules can simulate the effects of the compound 3-oxo-hexanoyl homoserine lactone in activating the receptor for this compound when it is present in a recombinant bacteria. […] This hypothesis was validated by the results of an experiment portrayed in FIG. 6. Accordingly, the down-regulation of TS in H630 (human colon cancer) cells treated with acyl-homoserine lactones was tested. Cells growing in RPMI 1640 culture medium, supplemented with 10% dialyzed fetal bovine serum at 37° C. in an atmosphere of 95:5 air:CO2. The compounds with the structures shown were added to the cells and allowed to incubate overnight (approximately 16 hours). The cells were extracted and TS measured by Western blotting as described. The compounds from top to bottom are: (1) 3-hydroxy butanoyl homoserine lactone, (2) butanoyl homoserine lactone; (3) 3-oxo-hexanoyl homoserine lactone; (4) d, 1-hexanoyl homoserine lactone, and (5) 1-homoserine lactone. Tubulin is shown as a loading standard.

[2] = system: thymidylate synthase (TS); assay: Luciferase induction in H630 cells containing pG3E1-2TBE-Neo by acyl homoserine lactone; conditions: 18 h
Excerpt: FIG. 7. Induction of luciferase as a function of 3-oxo-6-hexanoyl-homoserine lactone concentrations. H630 cells containing pG3E1-2TBE-Neo were exposed to the indicated concentrations of 3-oxo-6-hexanoyl homoserine lactone for 18 hrs then analyzed for luciferase activity.
FIG. 8. Comparison of 5-fluorouracil (5-FU) and 3-oxo-hexanoyl-homoserine lactone on induction of luciferase. H630 cells containing pG3E1-2TBE-Neo were exposed to the indicated concentrations of each compound for 18 hrs and analyzed for luciferase activity.
H630 cells containing pG3E1-2TBE-Neo were exposed to the indicated concentrations of 3-oxo-6-hexanoyl homoserine lactone for 18 h then analyzed for luciferase activity (FIG. 7).

[3] = system: thymidylate synthase (TS); assay: Evaluation of TS expression by Western blotting in H630-C6 cells
Method: FIGS. 4a and 4b. Evaluation of TS expression by Western blotting. […] The cells were harvested for Western blots.
This example describes the relationship between TS levels and luciferase production by various known TS inhibitors. Western blotting was performed as previously described (Dolnick and Black, 1996). Briefly, H630-C6 cells were washed with PBS and extracted with RIPA buffer. 10 μg of total protein was resolved by electrophoresis in a 10% SDS-PAGE and was blotted onto a PVDF membrane (Immobilon-P, Millipore, Bedford, Mass.). The membrane was hybridized with rabbit polyclonal antibody against TS (a gift from Dr. Edward Chu, VA Cancer Center, Yale University, West Haven, Conn.) diluted in SuperBlock Blocking Buffer (Pierce, Rockford, Ill.) plus 0.25% Tween 20 for one hour and hybridized with HRP-linked anti-rabbit secondary antibody (Jackson Laboratories) for an additional one hour. The membrane was detected with SuperSignal West Dura Extended Duration Substrate (Pierce, Rockford, Ill.) and was visualized by exposing the blot to Kodak XAR-5 film. […] The resulting signal was detected as described above.
The induction of luciferase activity depends upon the ability to reduce the amount of endogenous TS bound to the TBEs in the recombinant luciferase transcripts. Dissociation of TS from the luciferase reporter mRNA is expected to be accompanied by the removal of TS from TBEs located in other mRNAs as well, such as endogenous TS mRNA. Therefore, an increase in TS is expected to accompany the increase in luciferase. To verify whether a translational mechanism is involved we evaluated the levels of TS from cells treated with the compounds described above by Western blotting.

TS mRNA = assay: Evaluation of TS mRNA expression by RT-PCR in H630-C6 cells; conditions: 18 hr exposure
Method: FIGS. 5a and 5b. Evaluation of TS mRNA expression by RT-PCR. H630-C6 cells were exposed to the indicated compounds for 18 hr and total RNA was obtained for RT-PCR. Results are shown for 35 cycles of amplification. […] Similar results were obtained at lower cycles (data not shown).
This example describes the TS mRNA levels in the presence of various TS inhibitors. RNA was prepared using an RNAqueous kit (Ambion, Austin, Tex.). Reverse transcription was done using a Cells-to-cDNA kit (Ambion, Austin, Tex.). Polymerase chain reaction (PCR) was performed as described previously (Dolnick et al., 1992). Primers used for TS mRNA are 5′-TTTGGACAGCCTGGGATTCTC-3′ (Sense—SEQ ID NO:6) and 5′-AAAGCACCCTAAACAGCCATT-3′ (antisense—SEQ ID NO:7), generated a 600-bp PCR product. Primers used for β-actin are 5′-CAGCTCACCATGGATGATGATA-3′ (sense—SEQ ID NO:8) and 5′-CCA GAC GCA GGA TGG CAT-3′ (antisense—SEQ ID NO:9), generated a 543-bp PCR product. The PCR cycling condition used was: 95° C. for 30 seconds, 60° C. for 30 seconds, 72° C. for 1 minute, repeated for 25, 30 and 35 cycles (for TS) or 20, 25 and 30 cycles (for β-actin). Product formation was evaluated by ethidium bromide staining and was resolved by electrophoresis in 1.5% agarose gels.

[4] = system: thymidylate synthase (TS); assay: Luciferase assay in stably transfected H630-C6 cells (pG3E1-2TBE-Neo); conditions: H630-C6 cells
Method: FIGS. 3a-3j. RLU production in H630-C6 cells in response to TS inhibitors. H630-C6 cells were evaluated for luciferase activity in response to treatment with the indicated compounds. The cells were exposed to the compounds at the indicated concentrations for 18 hr and luciferase assays were then performed according to the manufacturer's instructions. The mean values of triplicates or quadruplicates are shown along with the standard derivations.
This example describes the stable transfection of cells with the DNA construct of the present invention. To facilitate selection of stable transformants, we added a neomycin-resistance gene to the pG3E1-2TBE (FIG. 1) to generate a new plasmid termed pG3E1-2TBE-Neo as follows. For stable transfection, pG3E1-2TBE-Neo was linearized at the ampicillin resistance gene with Ase I and was introduced into H630 cells as described above. At 24 hrs post-transfection, the cells were exposed to 400 μg/ml of G418 for two weeks. Individual clones were picked at that time and screened for their ability to induce luciferase in response to treatment with 5-FU, a known TS inhibitor. Following selection with G418 and evaluation for changes in luciferase activity after exposure of the cells to 5-FU, the cloned subline H630/pG3E1-2TBE-Neo-L1-2-C6 (H630-C6) was chosen for further study.
The stably transfected H630-C6 cell line was maintained in RPMI 1640 plus 10% dialyzed FBS and 400 μg/ml of geneticin (G418). For luciferase assays, 2×10^4 cells were seeded in each well of a 24-well plate in RPMI 1640 medium plus 10% FBS without G418 and were allowed to attach at least six hr, followed by drug exposure overnight (approximately 18 hr). The cells were then washed with PBS (137 mM NaCl, 2.7 mM KCl, 4.3 mM Na2HPO4, 1.4 mM KH2PO4, pH 7.4), lysed with Passive Lysis Buffer (Promega, Madison) and assayed for luciferase activity using the Luciferase Assay System (Promega, Madison, Wis.) according to the manufacturer's instructions. Relative light units (RLU) were measured with a Lumat LB 9501 luminometer (EG & G Berthold, Wildbad, Germany).
To test H630-C6 as a tool to identify TS modulators three different classes of compounds, i.e., specific or predominantly specific TS inhibitors, agents that inhibit folate pathways or inhibit TS as well as having other targets, and agents that act through TS unrelated sites of action were evaluated for their ability to induce changes in luciferase activity.

CCCC(=O)CC(=O)N[C@H]1CCOC1=O [3-oxo-hexanoyl homoserine lactone]
down-regulation of TS (Western blotting), in words [1]: most active of all the compounds shown
luciferase activity as a function of concentration [2]: increased the luciferase activity

Cc1c2oc3c(C)ccc(C(=O)N[C@@H]4C(=O)N[C@H](C(C)C)C(=O)N5CCC[C@H]5C(=O)N(C)CC(=O)N(C)[C@@H](C(C)C)C(=O)O[C@@H]4C)c3nc-2c(C(=O)N[C@@H]2C(=O)N[C@H](C(C)C)C(=O)N3CCC[C@H]3C(=O)N(C)CC(=O)N(C)[C@@H](C(C)C)C(=O)O[C@@H]2C)c(N)c1=O [Act D, actinomycin D] (I: T[dV]P[Sar][NMeV] / II: T[dV]P[Sar][NMeV]; ester I:1-I:C, II:1-II:C; linker I:N-II:N via Actinocin(9to1))
TS protein level by Western blotting ([3]; H630-C6 cells, 18 hr treatment): no increase of TS protein; also recorded: did not induce TS levels
TS levels as a function of time (time course) ([3]; by 24 hr, data not shown): dropped
TS mRNA level by RT-PCR (TS mRNA): not altered
increase of luciferase ([4]; 50 μM, 18 hr): up to 3.5 fold
change in luciferase activity (RLU), in words ([4]; 18 hr exposure): concentration-dependent increase of RLU
